Measured values as given in paper PMC11002876, “KcsA-Kv1.x chimeras with complete ligand-binding sites provide improved predictivity for screening selective Kv1.x blockers” (The Journal of Biological Chemistry, 2024).
Positions count from the first letter of the chain named. pIC50: −log10 of the molar value. Like-named read-outs stand apart in the source and are kept apart here. Where a SMILES comes first, the peptide text is derived from it.

Assays:
KcsA-Kv1.2 T+F chimera [1] = target: T1, KcsA-Kv1.2 T+F chimera (Streptomyces lividans, UniProt P0A334, R52A/G53D/A54E/P55R/G56E/A57S/L59F/I60P/T61S/Y62I/R64D/L81M/Y82V/V84T); assay: Phage-binding competition assay, KcsA-Kv1.2 T+F; design: species or system human Kv1.2 turret and filter in Streptomyces lividans KcsA; details: rank by competition IC50 among MTX, ShK, KTX1
T1 sequence (P0A334 1-160 R52A/G53D/A54E/P55R/G56E/A57S/L59F/I60P/T61S/Y62I/R64D/L81M/Y82V/V84T): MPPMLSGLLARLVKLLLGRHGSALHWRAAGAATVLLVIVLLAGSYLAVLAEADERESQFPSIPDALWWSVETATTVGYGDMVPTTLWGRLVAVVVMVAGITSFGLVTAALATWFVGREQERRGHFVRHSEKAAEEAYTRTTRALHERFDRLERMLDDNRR
Experimental: (§1) Phage stock solutions were diluted to working concentration with phage resuspension buffer supplemented with 2 mM DDM. For protein immobilization, the following amounts were used in a final volume of 50 μl/well: wt KcsA, 0.1 μg; KcsA-Kv1.1 T-only, 0.005 μg; KcsA-Kv1.1 T+F, 0.02 μg; KcsA-Kv1.2 T-only, 0.01 μg; KcsA-Kv1.2 T+F, 0.1 μg; KcsA-Kv1.3 T-only, 0.01 μg; and KcsA-Kv1.3 T+F, 0.1 μg. Protein samples were diluted in 50 μl of storage buffer (20 mM Tris pH8.0, 300 mM KCl, 2 mM DDM) and were added to the designated wells of a Pierce Clear, 96-Well Nickel Coated Plate (15442, Thermo Fisher Scientific), then incubated for 1 h at room temperature on a horizontal shaker at 130 rpm. The plate was blocked for 1 h at room temperature with 180 μl/well TBS-BSA supplemented with 1 mM DDM. Following blocking, the wells were washed 4× with washing buffer (300 μl TBS-Tween, 0.1% v/v) using a Wellwash Versa microplate washer (Thermo Fisher Scientific); then 50 μl phage solution (in TBS-BSA-Tween, 0.1% v/v, 2 mM DDM) at determined phage concentration was added to the wells and incubated for 1 h at room temperature on a horizontal shaker. The plate was washed 4× with washing buffer, then 50 μl anti-M13 IgG HRP (MA5-36125, Invitrogen) diluted to 1:2500 in TBS-Tween (0.1% v/v) was added to the wells and incubated for 1 h at room temperature. The plate was washed again 4× with 300 μl/well washing buffer. Finally, 50 μl/well 1-Step Ultra TMB-ELISA solution (34028, Thermo Fisher Scientific) was added to the wells, and the developing signal was stopped with 50 μl 1M HCl after 5 to 10 min. The light absorbance signal was read at 450 nm with Byonoy absorbance 96 plate reader (Byonoy GmbH).
(§2) For protein immobilization, the following amounts were used in a final volume of 50 μl/well: KcsA-Kv1.1 T-only, 0.005 μg; KcsA-Kv1.1 T+F, 0.01 μg; KcsA-Kv1.2 T-only, 0.025 μg; KcsA-Kv1.2 T+F, 0.0125 μg; KcsA-Kv1.3 T-only, 0.01 μg; and KcsA-Kv1.3 T+F, 0.1 μg. Protein samples were diluted in storage buffer. Binding of given concentrations of relevant ligand-displaying phages quantified by light absorbance ([…]) were investigated in a similar manner as in phage ELISA-binding assay, while different concentrations of competing toxin test substances were applied simultaneously. The results were converted to percent inhibitions (percent displacement) of the indicator phage binding, and relative affinities of the tested toxins were assessed by plotting percent displacements against log concentrations and determining half maximal inhibitory concentrations (IC50) by sigmoidal curve fitting using “Sigmoidal dose-response (variable slope) with least squares method” algorithm in GraphPad Prism 8 using the following equation: Y=Bottom+Top−Bottom/1+10^(LogEC50−×)⋅HillSlope

KcsA-Kv1.2 T+F chimera [2] = target: T2, KcsA-Kv1.2 T+F chimera (Streptomyces lividans, UniProt P0A334, A54E/A57S/G53D/G56E/I60P/L59F/L81M/P55R/R52A/R64D/T61S/V84T/Y62I/Y82V); assay: Phage-binding competition assay, KcsA-Kv1.2 T+F; design: species or system human Kv1.2 turret and filter in Streptomyces lividans KcsA
T2 sequence (P0A334 1-160 R52A/G53D/A54E/P55R/G56E/A57S/L59F/I60P/T61S/Y62I/R64D/L81M/Y82V/V84T): T1 sequence (P0A334 1-160 R52A/G53D/A54E/P55R/G56E/A57S/L59F/I60P/T61S/Y62I/R64D/L81M/Y82V/V84T)
Experimental: as §1, §2

[3] = target: T3, KcsA-Kv1.1 T-only chimera (Streptomyces lividans, UniProt P0A334, A54E/A57S/G53E/G56E/I60S/L59F/P55A/Q58H/R52A/R64D/T61S/Y62I); assay: Phage-binding competition assay, KcsA-Kv1.1 T-only; design: species or system human Kv1.1 turret in Streptomyces lividans KcsA
T3 sequence (P0A334 1-160 R52A/G53E/A54E/P55A/G56E/A57S/Q58H/L59F/I60S/T61S/Y62I/R64D): T1 sequence (P0A334 1-160 R52A/G53D/A54E/P55R/G56E/A57S/L59F/I60P/T61S/Y62I/R64D/L81M/Y82V/V84T) with D53E, R55A, Q58H, P60S, M81L, V82Y, T84V
Experimental: as §1, §2

[4] = target: T4, KcsA-Kv1.1 T-only chimera (Streptomyces lividans, UniProt P0A334, R52A/G53E/A54E/P55A/G56E/A57S/Q58H/L59F/I60S/T61S/Y62I/R64D); assay: Phage-binding competition assay, KcsA-Kv1.1 T-only; design: species or system human Kv1.1 turret in Streptomyces lividans KcsA; details: for competition binding to KcsA-Kv1.1 T-only, in words: ShK-phage competition, native peptide, Fig. 8E (ligand-binding pattern); for Rank, T-only chimera (Kv1.1): rank by competition IC50 among ShK, KTX1, MTX
T4 sequence (P0A334 1-160 R52A/G53E/A54E/P55A/G56E/A57S/Q58H/L59F/I60S/T61S/Y62I/R64D): T1 sequence (P0A334 1-160 R52A/G53D/A54E/P55R/G56E/A57S/L59F/I60P/T61S/Y62I/R64D/L81M/Y82V/V84T) with D53E, R55A, Q58H, P60S, M81L, V82Y, T84V
Experimental: as §1, §2

Kv1.2 = details: cited from earlier work
Description: (§3) Peptide toxins of venomous animal origin as lead molecules for optimization may offer an advantage over small molecules in terms of potentially greater affinity and specificity. These miniproteins are usually up to 50 amino acids in length and can adopt distinct conformation with secondary structural elements stabilized by several disulfide bonds ([9], [10], [11]). Due to their considerable surface area, miniproteins can form stable complexes with target proteins through extensive interaction surfaces ([12], [13]). The miniprotein Kv1.3 blocker drug candidate, Dalazatide—a synthetic derivative ...

mouse Kv1.1 = details: cited from earlier work
Description: as §3

KCa3.1 = details: cited from earlier work
Description: as §3

[5] = displacement of HgTx1-phage, KcsA-Kv1.2 T+F 0.0125 μg/well on nickel-coated plate, mean ± SD (n = 3), read-out: IC50, T+F chimera (Kv1.2)
[6] = displacement of ShK-phage, KcsA-Kv1.1 T-only 0.005 μg/well on nickel-coated plate, mean ± SD (n = 3), NQ = not quantifiable, read-out: IC50, T-only chimera (Kv1.1)

SMILES	Rank, T+F chimera (Kv1.2) (KcsA-Kv1.2 T+F chimera [1])	pIC50 (KcsA-Kv1.2 T+F chimera [2]; [5])	pIC50 [3, 6]	competition binding to KcsA-Kv1.1 T-only, in words [4]	Rank, T-only chimera (Kv1.1) [4]	pIC50 (KcsA-Kv1.2 T+F chimera [2]; HgTx1-phage competition, KcsA-Kv1.2 T+F, value given in figure, sigmoidal fit to means of three replicates, read-out: IC50 (Fig. 7F))	competition binding to KcsA-Kv1.1 T-only, in words ([4]; listed as MTX1)	pIC50 ([3]; ShK-phage competition, T-only KcsA-Kv1.1, value given in figure, sigmoidal fit to means of three replicates, read-out: IC50 (Fig. 8E))	selectivity for Kv1.3 over Kv1.2 (Kv1.2)	selectivity for Kv1.3 over mouse Kv1.1 (mouse Kv1.1)	selectivity for Kv1.3 over KCa3.1 (KCa3.1)
CC[C@H](C)[C@H](NC(=O)[C@H](CCC(=O)O)NC(=O)[C@@H](NC(=O)CN)C(C)C)C(=O)N[C@@H](CC(N)=O)C(=O)N[C@H](C(=O)N[C@@H](CCCCN)C(=O)N[C@H]1CSSC[C@@H]2NC(=O)[C@H](CCCCN)NC(=O)CNC(=O)[C@H](Cc3ccccc3)NC(=O)[C@H](CCCNC(=N)N)NC(=O)[C@H](CCSC)NC(=O)CNC(=O)[C@H](C)NC(=O)[C@H](CC(=O)O)NC(=O)[C@H](CCCCN)NC(=O)[C@@H]3CSSC[C@@H](C(=O)N[C@H](C(=O)N4CCC[C@H]4C(=O)N[C@@H](CCCCN)C(=O)O)[C@@H](C)O)NC(=O)[C@H](Cc4c[nH]cn4)NC(=O)[C@H](CSSC[C@H](NC(=O)[C@H](CCC(N)=O)NC(=O)[C@@H]4CCCN4C(=O)[C@H](CO)NC(=O)CNC(=O)[C@H](CO)NC1=O)C(=O)N[C@@H](CC(C)C)C(=O)N[C@@H](CCCCN)C(=O)N1CCC[C@H]1C(=O)N3)NC(=O)[C@H](CCCCN)NC(=O)[C@H](CCCNC(=N)N)NC(=O)[C@H](CC(N)=O)NC(=O)[C@H](CCSC)NC2=O)C(C)C [KTX1, Kaliotoxin-1]	3	6.69	8.90	ShK > KTX1 > MTX	2						
CC[C@H](C)[C@@H]1NC(=O)[C@@H]2CSSC[C@H](NC(=O)[C@H](CO)NC(=O)[C@@H](N)C(C)C)C(=O)N[C@@H]([C@@H](C)O)C(=O)NCC(=O)N[C@@H](CO)C(=O)N[C@@H](CCCCN)C(=O)N[C@@H](CC(=O)O)C(=O)N[C@@H](CSSC[C@@H](C(=O)N[C@@H](CCCCN)C(=O)N[C@H]3CSSC[C@@H](C(N)=O)NC(=O)CNC(=O)[C@H](Cc4ccc(O)cc4)NC3=O)NC(=O)[C@H](CO)NC(=O)[C@H](CCCCN)NC(=O)[C@H](CC(N)=O)NC1=O)C(=O)N[C@@H](Cc1ccc(O)cc1)C(=O)N[C@@H](C)C(=O)N1CCC[C@H]1C(=O)N[C@H]1CSSC[C@H](NC(=O)CNC(=O)[C@H]([C@@H](C)O)NC(=O)[C@H](CCC(N)=O)NC(=O)[C@H](CCCCN)NC(=O)[C@H](CCCNC(=N)N)NC1=O)C(=O)N1CCC[C@H]1C(=O)N[C@@H](CC(N)=O)C(=O)N[C@@H](C)C(=O)N[C@@H](CCCCN)C(=O)N2 [MTX, Maurotoxin] (HELM PEPTIDE1{V.S.C.T.G.S.K.D.C.Y.A.P.C.R.K.Q.T.G.C.P.N.A.K.C.I.N.K.S.C.K.C.Y.G.C.[am]}$PEPTIDE1,PEPTIDE1,3:R3-24:R3|PEPTIDE1,PEPTIDE1,9:R3-29:R3|PEPTIDE1,PEPTIDE1,13:R3-19:R3|PEPTIDE1,PEPTIDE1,31:R3-34:R3$$$V2.0; N-terminus and C-terminus assumed)	1		< 6.00	ShK > KTX1 > MTX	3	9.89	negligible binding				
CC[C@H](C)[C@@H]1NC(=O)[C@@H](NC(=O)[C@H](CO)NC(=O)[C@@H](N)CCCNC(=N)N)CSSC[C@@H](C(=O)O)NC(=O)[C@H]([C@@H](C)O)NC(=O)CNC(=O)[C@@H]2CSSC[C@@H]3NC(=O)[C@H](CCC(N)=O)NC(=O)[C@H](Cc4ccccc4)NC(=O)[C@H](C)NC(=O)[C@H]([C@@H](C)O)NC(=O)[C@H](CSSC[C@H](NC(=O)[C@H](Cc4ccccc4)NC(=O)[C@H](CO)NC(=O)[C@H](CC(C)C)NC(=O)[C@H](CCCNC(=N)N)NC(=O)[C@H](Cc4ccc(O)cc4)NC(=O)[C@H](CCCCN)NC(=O)[C@H](CCSC)NC(=O)[C@H](CO)NC(=O)[C@H](Cc4c[nH]cn4)NC(=O)[C@H](CCCCN)NC3=O)C(=O)N[C@@H](CCCNC(=N)N)C(=O)N[C@@H](CCCCN)C(=O)N[C@@H]([C@@H](C)O)C(=O)N2)NC(=O)[C@H](CCCNC(=N)N)NC(=O)[C@H](CO)NC(=O)[C@H](CCCCN)NC(=O)[C@@H]2CCCN2C(=O)[C@H]([C@@H](C)CC)NC(=O)[C@H]([C@@H](C)O)NC(=O)[C@H](CC(=O)O)NC1=O [ShK, Stichodactyla toxin]	2	7.80		ShK > KTX1 > MTX	1			9.50			
CC[C@H](C)[C@H](NC(=O)[C@H](C)NC(=O)[C@H](C)NC(=O)[C@H](C)N)C(=O)N[C@@H](CO)C(=O)N[C@H]1CSSC[C@@H]2NC(=O)[C@H](CCCCN)NC(=O)CNC(=O)[C@H](CC(N)=O)NC(=O)[C@H](CCCCN)NC(=O)[C@@H]3CSSC[C@@H](C(N)=O)NC(=O)[C@H](Cc4ccc(O)cc4)NC(=O)[C@H](Cc4ccc(O)cc4)NC(=O)[C@@H]4CSSC[C@H](NC(=O)[C@H](CCCCN)NC(=O)[C@@H]5CCCN5C(=O)[C@@H]5CCCN5C(=O)[C@H](CSSC[C@H](NC(=O)[C@H](CCCCN)NC(=O)[C@H](CCCNC(=N)N)NC(=O)[C@H](CC(N)=O)NC(=O)[C@H](CCSC)NC2=O)C(=O)N[C@@H](CCCCN)C(=O)N4)NC(=O)[C@H](CCC(=O)O)NC(=O)[C@@H]2CCCN2C(=O)[C@H](CO)NC(=O)CNC(=O)[C@H](C(C)C)NC1=O)C(=O)N[C@@H](CCCNC(=N)N)C(=O)N[C@@H](C)C(=O)N[C@@H](CCC(N)=O)C(=O)NCC(=O)N3 [Vm24, Vm24 toxin]									limited selectivity	limited selectivity	limited selectivity
